This is an account of results in patent US12703870B2, “Regulation of root development” (UT-Battelle, LLC, priority 2023, dated 2026).

This experiment deals with adventitious root formation in control and PtrXB38-OE micro-cuttings. Kind of experiment: Adventitious root formation of micro-propagated cuttings in ½ MS medium with chemical treatment. The class given is in vivo, P. tremula×P. alba ‘INRA 717-1B4’. As for the experimental part:
Plant Growth Conditions: The tissue culture plants were maintained in ½ MS media (½ MS basal salts, 20 g/L sucrose, 1× Gamborg's B5 vitamin mixture, 0.3% Gelzan) supplemented with 0.1 mg/L IBA and grown in growth chambers (16 h:8 h, light:dark) with white fluorescent light (100 μmol m^−2 s^−1) at 22° C. To assess adventitious root development phenotype, 2-3 cm length of shoot tops from 1-month-old tissue culture saplings were excised and placed in fresh medium for root induction. Root number was counted 12 days after subculture. For chemical treatment, filter-sterilized auxin transport inhibitor naphthylphthalamic acid (NPA) and ethylene biosynthesis inhibitor aminoethoxyvinylglycine (AVG) were added in the ½ MS medium.

`O=C(O)c1ccccc1C(=O)Nc1cccc2ccccc12` [NPA, naphthylphthalamic acid]: the root formation entry (5 μM NPA, both control and PtrXB38-OE micro-cuttings) is on record as “completely blocked root formation”. In addition, under “increasing NPA concentrations (0.2 μM and 1 μM, FIG. 3D), PtrXB38-OE plants”, the “promotive effect of PtrXB38 on AR formation (adventitious root number)” value was “gradually attenuated”.
